PubChem BioAssay (NCI)
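All cell lines were grown in 96-well plates and treated with compound for 48 hours. GI50: concentration for 50% inhibition of growth. TGI denotes the concentration required for complete inhibition of growth.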 Where a SMILES comes first, the peptide text is derived from it. The star is where a group is joined. Palmitoyl = CCCCCCCCCCCCCCCC(=O)*

How the values were obtained:
Test in all cases: inhibition of tumour cell growth, NCI panel, 48 h
HL-60(TB) leukemia = system: HL-60(TB) leukemia
LOX IMVI melanoma = system: LOX IMVI melanoma
MCF7 breast = system: MCF7 breast
OVCAR-3 ovarian = system: OVCAR-3 ovarian
PC-3 prostate = system: PC-3 prostate
SN12C renal = system: SN12C renal
SR leukemia = system: SR leukemia
HCC-2998 colon = system: HCC-2998 colon
RXF 393 renal = system: RXF 393 renal
SNB-75 CNS = system: SNB-75 CNS

SMILES	TGI (HL-60(TB) leukemia) [µM]	TGI (LOX IMVI melanoma) [µM]	TGI (MCF7 breast) [µM]	TGI (OVCAR-3 ovarian) [µM]	TGI (PC-3 prostate) [µM]	TGI (SN12C renal) [µM]	TGI (SR leukemia) [µM]	TGI (HCC-2998 colon) [µM]	TGI (RXF 393 renal) [µM]	TGI (SNB-75 CNS) [µM]	GI50 (HCC-2998 colon) [µM]	GI50 (HL-60(TB) leukemia) [µM]	GI50 (MCF7 breast) [µM]	GI50 (OVCAR-3 ovarian) [µM]	GI50 (RXF 393 renal) [µM]	GI50 (SN12C renal) [µM]	GI50 (SNB-75 CNS) [µM]	GI50 (SR leukemia) [µM]	GI50 (LOX IMVI melanoma) [µM]
CC1=C(O)C2=C(C(=O)C1=O)[C@@H](C)CC[C@@H]2[C@@H](C)C/C=C/C(C)(C)O	71.3	> 100	> 100	79.2	> 100	> 100	80.4	–	–	–	–	–	–	–	–	–	–	–	–
c1cnc2c(c1)ccc1cccnc12	3.04	> 100	> 100	> 86.6	> 100	> 28.2	4.26	> 62.4	> 100	> 39.7	–	–	–	–	–	–	–	–	–
c1ccc(-c2nc(N3CCNCC3)c3oc(-c4ccccc4)nc3n2)cc1	4.26	–	3.31	3.21	–	2.98	0.793	3.05	3.07	2.59	1.58	2.03	1.48	1.74	1.54	1.61	1.27	0.259	–
Cn1c(-c2ccccc2)cc(-c2cccs2)c1-c1cccs1	> 100	> 100	> 100	> 100	–	> 100	–	> 100	> 100	> 100	–	–	–	–	–	–	–	–	–
CCN1CCC(O)(/C=C/c2ccccc2C)C(C(=O)/C=C/c2ccccc2C)C1 (stereo unspecified)	4.85	3.38	7.37	4.77	4.05	4.6	> 100	2.61	3.67	16.6	–	–	–	–	–	–	–	–	–
COc1ccc(Oc2cccc(C3C4C(=O)N(c5ccc(C)c(Cl)c5)C(=O)C4ON3C(C(N)=O)c3ccccc3)c2)cc1 (stereo unspecified)	> 50	> 50	47.9	> 50	> 50	29.3	35.6	–	30.1	26.2	–	–	–	–	–	–	–	–	–
CC12C=CC(=O)C=C1CCC1C3CCC(O)(C(=O)CO)C3(C)CC(O)C12F (stereo unspecified)	> 100	> 100	> 100	> 100	> 100	> 100	> 100	> 100	> 100	> 100	–	–	–	–	–	–	–	–	–
COC(=O)c1c(C)n([O-])c2cc(Cl)c(Cl)cc2[n+]1=O	50.2	27.8	> 100	52.4	> 100	84	> 100	32.1	> 100	–	–	–	–	–	–	–	–	–	–
CCOC(=O)c1c(C)n(-c2ccc(Cl)cc2)c2c1cc(O)c1[nH]c3c(c12)CCCC3	> 100	> 100	> 100	> 100	> 100	> 100	43.3	> 100	> 100	> 100	–	–	–	–	–	–	–	–	–
CCCC1CCC(=C2C(=O)CCC2=O)O1 (stereo unspecified)	> 100	> 100	> 100	> 100	> 100	> 100	> 100	> 100	> 100	> 100	–	–	–	–	–	–	–	–	–
CN1C(c2ccccc2)CC(=O)C(N)C1c1ccccc1 (stereo unspecified)	56.7	32.1	–	> 86.3	–	97.6	> 60.2	43.3	> 31.6	> 100	–	–	–	–	–	–	–	–	–
Nc1nc(O)c2ncn([C@H]3CC[C@@H](CO)O3)c2n1	–	> 100	> 100	> 100	> 100	> 100	> 100	–	> 100	> 100	–	–	–	–	–	–	–	–	–
Cc1ccc(-c2nc(N/N=C/C=C/c3ccccc3)c3ccccc3n2)cc1	> 100	> 100	75.9	> 100	> 100	99	> 100	> 100	99.6	> 100	–	–	–	–	–	–	–	–	–
OCCN(CCO)c1ncnc2nc[nH]c12	–	> 100	> 100	> 100	> 100	> 100	–	> 100	> 100	–	–	–	–	–	–	–	–	–	–
O=C(/C=C/c1ccc(Oc2cc(C(=O)/C=C/c3ccc(O)cc3)c(O)cc2O)cc1)c1ccc(O)cc1O	> 100	28.6	19.5	11.9	24.9	17	> 100	–	24.8	9.68	–	–	–	–	–	–	–	–	–
COC(=O)C1=C(OC(=O)/C(=C/c2ccc(Cl)cc2)c2ccc(Cl)cc2)C(C(=O)OC)[C@]2(O)[C@@H](C(=O)OC)[C@H]1C[C@@H](c1ccccc1)[C@@H]2C(=O)OC (stereo partly specified)	> 100	> 100	–	> 100	> 100	> 100	–	–	> 100	> 100	–	–	–	–	–	–	–	–	–
C/C(=N/N=C(\[O-])c1ccncc1)C(F)(F)F.C/C(=N\N=C(/[O-])c1ccncc1)C(F)(F)F.[Ni+2]	> 1	> 1	–	–	–	–	–	> 1	–	> 1	> 1	–	–	–	–	–	> 1	–	> 1
CCCCCCCCCCCCCCCC(=O)N1CCCC1C(=O)NCC(=O)NC(Cc1ccccc1)C(=O)NC(C)C(=O)NC(CO)C(=O)NC(Cc1ccc(O)cc1)C(=O)NC(CCCCN)C(=O)NC(CC(C)C)C(=O)NC(CCCN=C(N)N)C(=O)N1CCCC1C(=O)NCC(N)=O (stereo unspecified) (Palmitoyl-PGFASYKLRPG-NH2; configuration not given here)	31	–	42.8	56.6	–	–	24.5	28.9	53.5	43.5	13.4	17.2	18.2	24.2	24.7	–	22.9	12	–
COc1cc(C(C)O)c[n+](Cc2ccccc2)c1 (stereo unspecified)	> 100	> 100	–	> 100	–	> 100	> 100	> 100	> 100	> 100	–	–	–	–	–	–	–	–	–
O=c1c2cc(S(=O)(=O)O)ccc2nc(COc2ccc(Oc3ccc(Cl)cc3Cl)cc2)n1-c1ccc(Oc2ccc(Cl)cc2)cc1Cl	76	30.2	40.6	36.9	> 100	32.9	46.5	–	17.9	50.1	–	–	–	–	–	–	–	–	–
C[N+](C)(C)c1ncnc2c1ncn2C1CC(O)C(CO)O1 (stereo unspecified)	> 100	> 100	> 100	> 100	> 100	> 100	> 100	> 100	> 100	> 100	–	–	–	–	–	–	–	–	–
Nc1[nH]c(=O)nc2c1cnn2C1CCCCO1 (stereo unspecified)	> 100	> 100	–	–	–	> 100	> 100	> 100	> 100	> 100	–	–	–	–	–	–	–	–	–
CC(C)C(C(=O)O)N1C(=O)c2ccccc2C1=O (stereo unspecified)	> 100	> 100	> 100	> 100	> 100	> 100	–	> 100	> 100	> 100	–	–	–	–	–	–	–	–	–
COC(=O)/C=C(\CC(=O)OC)n1nnnc1[C@@H]1C[C@H](COC(c2ccccc2)(c2ccccc2)c2ccccc2)[C@H]2OC(C)(C)O[C@H]21	> 100	> 100	> 100	> 100	> 100	> 100	> 100	–	> 100	> 100	–	–	–	–	–	–	–	–	–
